Data: patent publication US20230416329A1, “A PEPTIDE WITH DISULFIDE BONDS AND INHIBITORY ACTIVITY AGAINST SERINE PROTEASES, DERIVED HYBRID PEPTIDES THEREOF, AND USES THEREOF” (INSTITUTE OF MATERIA MEDICA , CHINESE ACADEMY OF MEDICAL …, priority 2020, published 2023)

What was measured:
chymotrypsin = chymotrypsin (Bos taurus, UniProt P00766); test: in vitro; conditions: for remaining at 0.025 h, 60 μM / remaining at 0.05 h, 60 μM / remaining at 0.075 h, 60 μM / remaining at 0.1 h, 60 μM / remaining at 0.15 h, 60 μM / remaining at 0.25 h, 60 μM / remaining at 0.5 h, 60 μM / remaining at 1 h, 60 μM: isolated enzyme chymotrypsin, pH 7.8, Remaining peak area (%)/chymotrypsin
In short: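 RP-HPLC peak area tracked intact peptide after 37 °C digestion with chymotrypsin (0.05 μg/μL solution, 5 min preincubation). Samples were withdrawn at 1.5-60.0 min and stopped with 10% TFA.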

NEP24.11 = NEP24.11 (Homo sapiens, UniProt P08473); test: Tolerance of GLP-1 and its analogues to NEP24.11 (RP-HPLC remaining peak area); type: in vitro ADME; conditions: peptide 30 μM, NEP24.11 1.0 ng/μL, 37° C.
Sequence of NEP24.11 (P08473 whole entry): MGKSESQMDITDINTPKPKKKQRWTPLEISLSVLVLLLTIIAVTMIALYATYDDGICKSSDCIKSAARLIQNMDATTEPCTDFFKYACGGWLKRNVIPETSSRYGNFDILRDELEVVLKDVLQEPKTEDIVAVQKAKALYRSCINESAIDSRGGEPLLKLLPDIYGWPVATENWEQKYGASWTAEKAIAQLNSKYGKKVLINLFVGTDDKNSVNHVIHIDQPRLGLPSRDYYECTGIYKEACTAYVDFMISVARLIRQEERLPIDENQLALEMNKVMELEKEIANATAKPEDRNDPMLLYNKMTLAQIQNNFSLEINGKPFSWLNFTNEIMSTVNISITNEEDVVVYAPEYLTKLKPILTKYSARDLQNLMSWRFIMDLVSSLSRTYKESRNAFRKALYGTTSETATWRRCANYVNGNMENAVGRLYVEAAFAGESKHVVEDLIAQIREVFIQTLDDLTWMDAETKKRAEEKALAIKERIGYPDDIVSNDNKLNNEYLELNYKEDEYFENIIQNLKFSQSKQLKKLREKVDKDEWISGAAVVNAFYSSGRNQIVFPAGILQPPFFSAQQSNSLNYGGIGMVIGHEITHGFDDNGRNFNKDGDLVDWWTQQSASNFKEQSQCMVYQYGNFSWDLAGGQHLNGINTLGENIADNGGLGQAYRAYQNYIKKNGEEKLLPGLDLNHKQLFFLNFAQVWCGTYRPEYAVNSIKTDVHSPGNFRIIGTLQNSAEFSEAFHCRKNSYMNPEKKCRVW
Protocol: (§1) Mix by centrifugation at 8000 rpm for 30 seconds.
Arrange a certain volume of 0.04 μg/μL NEP24.11 enzyme solution in another sterile EP.

trypsin = molecular target: T1, trypsin (Bos taurus, UniProt P00760); test: in vitro; conditions: isolated enzyme trypsin, pH 7.8
T1 sequence (P00760 24-246): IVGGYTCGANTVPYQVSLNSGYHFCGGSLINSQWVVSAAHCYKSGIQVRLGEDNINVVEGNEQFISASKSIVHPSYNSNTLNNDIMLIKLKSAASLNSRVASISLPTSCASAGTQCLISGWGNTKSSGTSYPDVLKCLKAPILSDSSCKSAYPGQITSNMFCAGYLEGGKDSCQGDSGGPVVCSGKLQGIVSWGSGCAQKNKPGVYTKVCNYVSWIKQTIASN
Protocol: FIG. 17. […] At different time point, 25 μL aliquots was taken out, and 10% (v/v) TFA was added to terminate the reaction.
as §1
(§2) Arrange a certain volume of 0.05 μg/μL trypsin solution in another sterile EP. Incubate the EP tubes containing peptides and enzymes at 37° C. for 5 min, and separately add 6 μL of trypsin solution to each EP tube containing peptides and mix well. Start timing and extract 25 μL of reaction solution at 1.5, 3.0, 4.5, 6.0 and 9.0 min later, respectively. Add 3.75 μL of 10% TFA to terminate the reaction and mix well by centrifugation at 8000 rpm for 30 seconds.
as §2, with “and” for “and separately”, “9” for “6”, “6.0, 9.0, 15.0, 30.0,” for “6.0”, “60.0” for “9.0”
Referring to the experimental method in Example 5, in vitro stability of salmon Calcitonin analogs with oral administration activity to the enzymatic hydrolysis by trypsin, chymotrypsin and elastase were performed.
Referring to the experimental method in Example 5, in vitro stability of IL-17A inhibitory peptides towards the enzymatic hydrolysis by trypsin, chymotrypsin and elastase were performed.

DPP-IV = DPP-IV (Homo sapiens, UniProt P27487); test: Tolerance of GLP-1 and its analogues to DPP-IV (RP-HPLC remaining peak area); type: in vitro ADME; conditions: peptide 25 μM, DPP-IV 0.5 ng/μL, 37° C.; for Remaining peak area (%)/DPP-IV: 0.0 h; for remaining at 0.5 h, 25 μM / remaining at 2 h, 25 μM / remaining at 4 h, 25 μM / remaining at 8 h, 25 μM / remaining at 12 h, 25 μM: isolated DPP-IV enzyme in buffer, pH 8
Sequence of DPP-IV (P27487 whole entry, species assumed): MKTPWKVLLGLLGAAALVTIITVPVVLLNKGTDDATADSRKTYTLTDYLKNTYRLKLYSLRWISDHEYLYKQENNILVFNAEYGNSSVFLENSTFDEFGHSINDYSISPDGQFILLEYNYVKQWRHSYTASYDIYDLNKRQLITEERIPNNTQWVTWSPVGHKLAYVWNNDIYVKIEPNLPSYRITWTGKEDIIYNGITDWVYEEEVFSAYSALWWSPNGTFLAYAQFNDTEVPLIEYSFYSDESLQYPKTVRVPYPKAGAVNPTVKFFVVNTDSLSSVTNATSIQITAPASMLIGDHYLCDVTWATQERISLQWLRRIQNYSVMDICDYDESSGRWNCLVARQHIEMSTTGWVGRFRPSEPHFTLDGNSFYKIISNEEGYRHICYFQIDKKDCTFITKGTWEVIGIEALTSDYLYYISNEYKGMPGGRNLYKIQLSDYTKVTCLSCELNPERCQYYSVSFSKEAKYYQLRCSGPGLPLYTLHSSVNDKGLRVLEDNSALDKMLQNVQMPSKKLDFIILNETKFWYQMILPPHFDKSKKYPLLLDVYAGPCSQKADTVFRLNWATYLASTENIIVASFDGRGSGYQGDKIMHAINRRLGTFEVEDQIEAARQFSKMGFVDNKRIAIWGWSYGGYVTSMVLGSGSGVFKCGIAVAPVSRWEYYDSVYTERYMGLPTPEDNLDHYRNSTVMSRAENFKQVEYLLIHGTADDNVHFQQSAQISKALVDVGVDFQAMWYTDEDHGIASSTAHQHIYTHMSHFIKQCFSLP
Protocol: as §1
(2) Arrange a certain volume of 0.005 μg/μL DPP-IV solution in another sterile EP.

[1] = Stability of GLP-1 and its analogues in human serum; conditions: 25% (v/v) human serum; for Remaining peak area (%)/human serum: 0.0 h, peptide 0.03 mM, 37° C.; for remaining at 0.5 h, 0.03 mM / remaining at 2 h, 0.03 mM / remaining at 4 h, 0.03 mM / remaining at 8 h, 0.03 mM / remaining at 12 h, 0.03 mM: human, pH 7

remaining at 0.025 h, 60 μM (chymotrypsin) [%] | remaining at 0.05 h, 60 μM (chymotrypsin) [%] | remaining at 0.075 h, 60 μM (chymotrypsin) [%] | remaining at 0.1 h, 60 μM (chymotrypsin) [%] | remaining at 0.15 h, 60 μM (chymotrypsin) [%] | remaining at 0.25 h, 60 μM (chymotrypsin) [%] | remaining at 0.5 h, 60 μM (chymotrypsin) [%] | remaining at 1 h, 60 μM (chymotrypsin) [%] | Remaining peak area (%)/human serum [1] [%] | remaining at 0.5 h, 0.03 mM [1] [%] | remaining at 2 h, 0.03 mM [1] [%] | remaining at 4 h, 0.03 mM [1] [%] | remaining at 8 h, 0.03 mM [1] [%] | remaining at 12 h, 0.03 mM [1] [%] | Compound | Remaining peak area (%)/DPP-IV (DPP-IV) [%] | remaining at 0.5 h, 25 μM (DPP-IV) [%] | remaining at 2 h, 25 μM (DPP-IV) [%] | remaining at 4 h, 25 μM (DPP-IV) [%] | remaining at 8 h, 25 μM (DPP-IV) [%] | remaining at 12 h, 25 μM (DPP-IV) [%] | also measured
69 ± 4.4 | 58.1 ± 4.9 | 53.2 | 23.1 ± 0.9 | 23.5 ± 0.2 |  |  |  |  |  |  |  |  |  | CC[C@H](C)[C@H](NC(=O)[C@H](Cc1ccccc1)NC(=O)[C@H](CCC(=O)O)NC(=O)[C@H](CCCCN)NC(=O)[C@H](C)NC(=O)[C@H](C)NC(=O)[C@H](CCC(N)=O)NC(=O)CNC(=O)[C@H](CCC(=O)O)NC(=O)[C@H](CC(C)C)NC(=O)[C@H](Cc1ccc(O)cc1)NC(=O)[C@H](CO)NC(=O)[C@H](CO)NC(=O)[C@@H](NC(=O)[C@H](CC(=O)O)NC(=O)[C@H](CO)NC(=O)[C@@H](NC(=O)[C@H](Cc1ccccc1)NC(=O)[C@@H](NC(=O)CNC(=O)[C@H](CCC(=O)O)NC(=O)[C@H](C)NC(=O)[C@H](Cc1c[nH]cn1)NC(=O)CNC(=O)CNC(=O)[C@H](CCCNC(=N)N)NC(=O)[C@H](CO)NC(=O)[C@H](Cc1ccccc1)NC(=O)[C@H](CCCNC(=N)N)NC(=O)[C@H](CCC(N)=O)NC(=O)CNC(=O)CNC(=O)[C@@H]1CCCN1C(=O)[C@H](Cc1ccccc1)NC(=O)[C@@H]1CSSC[C@H](NC(=O)[C@H](CCCNC(=N)N)NC(=O)CN)C(=O)N[C@@H]([C@@H](C)O)C(=O)N[C@@H](CCCCN)C(=O)N[C@@H](CO)C(=O)N[C@@H]([C@@H](C)CC)C(=O)N2CCC[C@H]2C(=O)N2CCC[C@H]2C(=O)N[C@@H]([C@@H](C)CC)C(=O)N1)[C@@H](C)O)[C@@H](C)O)C(C)C)C(=O)N[C@@H](C)C(=O)N[C@@H](Cc1c[nH]c2ccccc12)C(=O)N[C@@H](CC(C)C)C(=O)N[C@H](C(=O)N[C@@H](CCCCN)C(=O)NCC(=O)N[C@@H](CCCNC(=N)N)C(=O)NCC(=O)NCC(=O)N[C@@H](CCCCN)C(=O)O)C(C)C [BT1-N-GLP-1] | 100.0 ± 0.0 | 88.9 ± 0.8 | 87 ± 2.7 | 85.8 ± 1.8 | 87.3 ± 2 | 84.8 ± 1.6 | Remaining peak area (%)/NEP24.11 (NEP24.11; 0.0 h): 100.0 ± 0.0%; remaining at 0.5 h, 30 μM (NEP24.11; isolated NEP24.11 enzyme in buffer, pH 7.4, 0.5 h): 90.8 ± 7.1%; remaining at 2 h, 30 μM (NEP24.11; isolated NEP24.11 enzyme in buffer, pH 7.4, 2.0 h): 78.8 ± 8%; remaining at 4 h, 30 μM (NEP24.11; isolated NEP24.11 enzyme in buffer, pH 7.4, 4.0 h): 77.8 ± 4.3%; remaining at 8 h, 30 μM (NEP24.11; isolated NEP24.11 enzyme in buffer, pH 7.4, 8.0 h, read-out: Remaining peak area (%)/NEP24.11): 71.7 ± 4.9%; remaining at 0.025 h, 60 μM (trypsin): 90.9 ± 3.6%; remaining at 0.05 h, 60 μM (trypsin): 96.4 ± 4.9%; remaining at 0.075 h, 60 μM (trypsin): 91.4 ± 3.2%; remaining at 0.1 h, 60 μM (trypsin): 93.2 ± 7%; remaining at 0.15 h, 60 μM (trypsin): 88.8 ± 4%; remaining at 0.25 h, 60 μM (trypsin): 90 ± 4.4%; remaining at 0.5 h, 60 μM (trypsin): 91 ± 6.6%; remaining at 1 h, 60 μM (trypsin): 88.9 ± 3%
80.9 ± 1.7 | 78 ± 2.9 | 83.2 ± 0.3 | 83.9 ± 3 | 82.4 ± 3.9 | 78.5 ± 2.1 | 81.3 ± 2.8 | 76.3 ± 2.7 | 100.0 ± 0.0 | 106 ± 15.8 | 97.6 ± 5.4 | 83 ± 3.1 | 64 ± 6.8 | 58.2 ± 10 | CC[C@H](C)[C@H](NC(=O)[C@H](Cc1ccccc1)NC(=O)[C@H](CCC(=O)O)NC(=O)[C@H](CCCCN)NC(=O)[C@H](C)NC(=O)[C@H](C)NC(=O)[C@H](CCC(N)=O)NC(=O)CNC(=O)[C@H](CCC(=O)O)NC(=O)[C@H](CC(C)C)NC(=O)[C@H](Cc1ccc(O)cc1)NC(=O)[C@H](CO)NC(=O)[C@H](CO)NC(=O)[C@@H](NC(=O)[C@H](CC(=O)O)NC(=O)[C@H](CO)NC(=O)[C@@H](NC(=O)[C@H](Cc1ccccc1)NC(=O)[C@@H](NC(=O)CNC(=O)[C@H](CCC(=O)O)NC(=O)[C@H](C)NC(=O)[C@H](Cc1c[nH]cn1)NC(=O)CNC(=O)CNC(=O)[C@@H](NC(=O)[C@@H]1CCCN1C(=O)[C@@H](NC(=O)CN)[C@@H](C)CC)[C@@H](C)CC)[C@@H](C)O)[C@@H](C)O)C(C)C)C(=O)N[C@@H](C)C(=O)N[C@@H](Cc1c[nH]c2ccccc12)C(=O)N[C@@H](CC(C)C)C(=O)N[C@H](C(=O)N[C@@H](CCCCN)C(=O)NCC(=O)N[C@@H](CCCNC(=N)N)C(=O)NCC(=O)NCC(=O)N[C@@H](CCCCN)C(=O)NCC(=O)N[C@@H](CO)C(=O)N[C@H]1CSSC[C@@H](C(=O)N[C@@H](Cc2ccc(O)cc2)C(=O)NCC(=O)O)NC(=O)[C@H](CCC(N)=O)NC(=O)[C@@H]2CCCN2C(=O)[C@@H]2CCCN2C(=O)[C@H]([C@@H](C)CC)NC(=O)[C@H](CO)NC(=O)[C@H](Cc2ccc(O)cc2)NC(=O)[C@H]([C@@H](C)O)NC1=O)C(C)C [D-GLP-1-CH4] | 100.0 ± 0.0 | 81.6 ± 1.9 | 76.4 ± 4.2 | 80.8 ± 1.4 | 75.1 ± 2.4 | 71 ± 3 | 
33.4 ± 1.7 | 32.6 ± 0.7 | 28.9 ± 1.1 | 31.9 ± 2.9 | 31.3 ± 0.8 | 30.9 ± 1 | 32.6 ± 0.6 | 36.2 ± 1.4 | 100.0 ± 0.0 | 98.4 ± 7.3 | 94.6 ± 2.1 | 101 ± 5.5 | 91.6 ± 6.8 | 43.7 ± 2.1 | CC[C@H](C)[C@H](NC(=O)[C@H](Cc1ccccc1)NC(=O)[C@H](CCC(=O)O)NC(=O)[C@H](CCCCN)NC(=O)[C@H](C)NC(=O)[C@H](C)NC(=O)[C@H](CCC(N)=O)NC(=O)CNC(=O)[C@H](CCC(=O)O)NC(=O)[C@H](CC(C)C)NC(=O)[C@H](Cc1ccc(O)cc1)NC(=O)[C@H](CO)NC(=O)[C@H](CO)NC(=O)[C@@H](NC(=O)[C@H](CC(=O)O)NC(=O)[C@H](CO)NC(=O)[C@@H](NC(=O)[C@H](Cc1ccccc1)NC(=O)[C@@H](NC(=O)CNC(=O)[C@H](CCC(=O)O)NC(=O)[C@H](C)NC(=O)[C@H](Cc1c[nH]cn1)NC(=O)CNC(=O)CNC(=O)[C@@H](NC(=O)[C@@H]1CCCN1C(=O)[C@@H](NC(=O)CN)[C@@H](C)CC)[C@@H](C)CC)[C@@H](C)O)[C@@H](C)O)C(C)C)C(=O)N[C@@H](C)C(=O)N[C@@H](Cc1c[nH]c2ccccc12)C(=O)N[C@@H](CC(C)C)C(=O)N[C@H](C(=O)N[C@@H](CCCCN)C(=O)NCC(=O)N[C@@H](CCCNC(=N)N)C(=O)NCC(=O)NCC(=O)N[C@@H](CCCCN)C(=O)NCC(=O)N[C@@H](Cc1ccccc1)C(=O)N[C@H]1CSSC[C@@H](C(=O)N[C@@H](Cc2ccc(O)cc2)C(=O)NCC(=O)O)NC(=O)[C@H](CCC(N)=O)NC(=O)[C@@H]2CCCN2C(=O)[C@@H]2CCCN2C(=O)[C@H]([C@@H](C)CC)NC(=O)[C@H](CO)NC(=O)[C@H](Cc2ccc(O)cc2)NC(=O)[C@H]([C@@H](C)O)NC1=O)C(C)C [D-GLP-1-CH10] | 100.0 ± 0.0 | 64.9 ± 3.7 | 66.2 ± 1 | 69.3 ± 3.3 | 70.8 ± 0.4 | 74.4 ± 0.3 | stability towards chymotrypsin hydrolysis (in words) (chymotrypsin): lower residual amount; serum stability (in words) [1]: more stable in serum
